In patent publication US9175045B2, “Peptidomimetic macrocycles” (Aileron Therapeutics, Inc., priority 2008, dated 2015):
Numbered stars: 1 amine (or outer) side, 2 acyl side, 3 side chain; on linkers, the order of the positions; unused ones are H or OH. Bridge positions count the residues as written; N and C are the ends. Square brackets hold non-standard residues; d marks the D form. Peptide text beside a SMILES is read from it. ξ: configuration not given here. ξαMeNle(6-ylidene) = CC(CCCC=[*:3])(N[*:1])C(=O)[*:2]; Nle = CCCC[C@H](N)C(=O)O; Aib = CC(C)(N)C(=O)O

Legend:
[1] = Estimated free fraction in blood, calculated from Kd* with [HSA]total 700 μM; assay type: in vitro ADME; settings: human; [HSA]total set at 700 μM; read-out: Free Fraction est. in blood
Method: The free fraction in blood is estimated per the following equation, as derived by Trainor, Expert Opin. Drug Disc., 2007, 2(1):51-64, where [HSA]total is set at 700 μM. [formula]

Jurkat cell line = assay type: cell-based; settings: for EC50: 24 h
Method: Jurkat cell line (Clone E6-1, ATCC catalog #TIB-152) is grown in specific serum-supplemented media (RPMI-1640, Invitrogen catalog #22400) as recommended by ATCC. A day prior to the initiation of the study, cells are split at optimal cell density (2×10^5-5×10^5 cells/ml) to assure actively dividing cells. The next day, cells are washed twice in serum-free Opti-MEM media (Invitrogen, Catalog #51985) and cells are then plated at optimal cell density (10,000 cells/well) in 50 μl Opti-MEM media or Opti-MEM supplemented with 2% or 10% human serum (Bioreclamation, catalog #HMSRM) in 96-well white tissue culture plate (Nunc, catalog #136102).
For serum free experiment, crosslinked polypeptides are diluted from 2 mM stocks (100% DMSO) in sterile water to prepare 400 μM working solutions. The crosslinked polypeptides and controls are diluted 10-fold first and then serially two-fold diluted in Opti-MEM in dosing plates to provide concentrations of between 1.2 and 40 μM. 50 μl of each dilution is then added to the appropriate wells of the test plate to achieve final concentrations of the polypeptides equal to between 0.6 to 20 μM. For studies using Opti-MEM supplemented with human serum (Bioreclamation, catalog #HMSRM), crosslinked polypeptides are diluted from 10 mM stocks (100% DMSO) in sterile water to prepare 2 mM working solutions. The crosslinked polypeptides and controls are diluted 10-fold first and then serially two-fold diluted in Opti-MEM in the presence of 2% or 10% of human serum to provide concentrations of the polypeptides equal to between 6.25 to 200 μM in dosing plates. 50 μl of each dilution is then added to the appropriate wells of the test plate to achieve final concentrations of the polypeptides equal to between 3.125 to 100 μM. Controls included wells without polypeptides containing the same concentration of DMSO as the wells containing the macrocycles, wells containing 0.1% Triton X-100 and wells containing no cells. Plates are incubated for 24 hours at 37° C. in humidified 5% CO2 atmosphere.
At the end of the incubation period, CellTiter-Glo assay is performed according to manufacturer's instructions (Promega, catalog #G7573) and luminescence is measured using Synergy HT Plate reader (BioTek). Luminescence correlates with viability. A reduction in viability reflects the ability of the test compounds to induce programmed cell death via BAX and BAK.

human serum proteins = experiment: Apparent affinity to human serum proteins (Kd*) by EC50 shift analysis; assay type: in vitro ADME; settings: nonlinear regression of EC50 shift with serum, n = 1, P = 700 μM for 100% serum
Source text: The measurement of apparent Kd values for serum protein by EC50 shift analysis provides a simple and rapid means of quantifying the propensity of experimental compounds to bind HSA and other serum proteins. A linear relationship exists between the apparent EC50 in the presence of serum protein (EC′50) and the amount of serum protein added to an in vitro assay. This relationship is defined by the binding affinity of the compound for serum proteins, expressed as Kd*. This term is an experimentally determined, apparent dissociation constant that may result from the cumulative effects of multiple, experimentally indistinguishable, binding events. The form of this relationship is presented here in Eq. 0.3, and its derivation can be found in Copeland et al, Biorg. Med. Chem. Lett. 2004, 14:2309-2312. [formula] A significant proportion of serum protein binding can be ascribed to drug interactions with HSA, due to the very high concentration of this protein in serum (35-50 g/L or 530-758 μM). To calculate the Kd value for these compounds we have assumed that the shift in EC50 upon protein addition can be ascribed fully to the HSA present in the added serum, where P is 700 μM for 100% serum, P is 70 μM for 10% serum, etc. We further made the simplifying assumption that all of the compounds bind HSA with a 1:1 stoichiometry, so that the term n in Eq. (0.3) is fixed at unity. With these parameters in place we calculated the Kd* value for each stapled peptide from the changes in EC50 values with increasing serum (and serum protein) concentrations by nonlinear regression analysis of Eq. 0.3 using Mathematica 4.1 (Wolfram Research, Inc., www.wolfram.com). EC′50 values in whole blood are estimated by setting P in Eq. 0.3 to 700 μM [HSA].

Compound	fraction unbound [1]	EC50 (Jurkat cell line)	efficacy in serum-free media and in the presence of serum (Jurkat cell line; statement in words)	Kd (human serum proteins)
CCCC[C@H](NC(=O)C1(C)CCCC=CCCCC(C)(NC(=O)[C@H](C)NC(=O)[C@H](CC(C)C)NC(=O)[C@H](Cc2c[nH]cn2)NC(=O)[C@H](CCCNC(=N)N)NC(=O)[C@H](C)NC(=O)[C@@H](NC(=O)[C@H](CC(N)=O)NC(=O)[C@H](CCCNC(=N)N)NC(=O)[C@@H](NC(=O)[C@@H](NC(=O)[C@H](CC(=O)O)NC(C)=O)[C@@H](C)CC)[C@@H](C)CC)[C@@H](C)CC)C(=O)N[C@@H](C(C)C)C(=O)NCC(=O)N[C@@H](CC(=O)O)C(=O)N1)C(=O)N[C@@H](CC(=O)O)C(=O)N[C@@H](CCCNC(=N)N)C(=O)N[C@@H](CO)C(=O)N[C@H](C(N)=O)[C@@H](C)CC (stereo partly shown) [Compound 1, Ac-DIIRNIARHLA$VGD$NleDRSI-NH2] (Ac-DIIRNIARHLA[ξαMeNle(6-ylidene)]VGD[ξαMeNle(6-ylidene)][Nle]DRSI-NH2; staple 12-16)	< 0.001	1200 nM	high efficacy in serum-free media, which is substantially reduced in the presence of serum	< 100 nM
CCCC[C@H](NC(=O)C1(C)CCCC=CCCCC(C)(NC(=O)[C@H](C)NC(=O)[C@H](CC(C)C)NC(=O)[C@H](Cc2c[nH]cn2)NC(=O)[C@H](CCCNC(=N)N)NC(=O)[C@H](C)NC(=O)[C@@H](NC(=O)[C@H](CC(N)=O)NC(=O)[C@H](CCCNC(=N)N)NC(=O)[C@H](C)NC(=O)[C@H](C)NC(=O)[C@H](CC(=O)O)NC(C)=O)[C@@H](C)CC)C(=O)N[C@@H](C(C)C)C(=O)NC(C)(C)C(=O)N[C@@H](CC(=O)O)C(=O)N1)C(=O)N[C@@H](C)C(=O)N[C@@H](CCCNC(=N)N)C(=O)N[C@@H](CO)C(=O)N[C@H](C(N)=O)[C@@H](C)CC (stereo partly shown) [Compound 2, Ac-DAARNIARHLA$VAibD$NleARSI-NH2] (Ac-DAARNIARHLA[ξαMeNle(6-ylidene)]V[Aib]D[ξαMeNle(6-ylidene)][Nle]ARSI-NH2; staple 12-16)	< 0.001	1600 nM		< 100 nM
CCCC[C@H](NC(=O)C1(C)CCCC=CCCCC(C)(NC(=O)[C@H](C)NC(=O)[C@H](CC(C)C)NC(=O)[C@H](Cc2c[nH]cn2)NC(=O)[C@H](CCCNC(=N)N)NC(=O)[C@H](C)NC(=O)[C@@H](NC(=O)[C@H](CC(N)=O)NC(=O)[C@H](CCCNC(=N)N)NC(=O)[C@H](C)NC(=O)[C@@H](NC(=O)[C@H](CC(=O)O)NC(C)=O)[C@@H](C)CC)[C@@H](C)CC)C(=O)N[C@@H](C(C)C)C(=O)NC(C)(C)C(=O)N[C@@H](CC(=O)O)C(=O)N1)C(=O)N[C@@H](C)C(=O)N[C@@H](CCCNC(=N)N)C(=O)N[C@@H](CO)C(=O)N[C@H](C(N)=O)[C@@H](C)CC (stereo partly shown) [Compound 3, Ac-DIARNIARHLA$VAibD$NleARSI-NH2] (Ac-DIARNIARHLA[ξαMeNle(6-ylidene)]V[Aib]D[ξαMeNle(6-ylidene)][Nle]ARSI-NH2; staple 12-16)	< 0.001	1200 nM		< 100 nM
CCCC[C@H](NC(=O)C1(C)CCCC=CCCCC(C)(NC(=O)[C@H](C)NC(=O)[C@H](CC(C)C)NC(=O)[C@H](Cc2c[nH]cn2)NC(=O)[C@H](CCCNC(=N)N)NC(=O)[C@H](C)NC(=O)[C@@H](NC(=O)[C@H](CC(N)=O)NC(=O)[C@H](CCCNC(=N)N)NC(=O)[C@@H](NC(=O)[C@H](C)NC(=O)[C@H](CC(=O)O)NC(C)=O)[C@@H](C)CC)[C@@H](C)CC)C(=O)N[C@@H](C(C)C)C(=O)NC(C)(C)C(=O)N[C@@H](CC(=O)O)C(=O)N1)C(=O)N[C@@H](C)C(=O)N[C@@H](CCCNC(=N)N)C(=O)N[C@@H](CO)C(=O)N[C@H](C(N)=O)[C@@H](C)CC (stereo partly shown) [Compound 4, Ac-DAIRNIARHLA$VAibD$NleARSI-NH2] (Ac-DAIRNIARHLA[ξαMeNle(6-ylidene)]V[Aib]D[ξαMeNle(6-ylidene)][Nle]ARSI-NH2; staple 12-16)	< 0.001	1000 nM		< 100 nM
